According to ChEMBL document CHEMBL3638446, “Quinoxaline inhibitors of phosphoinositide-3-kinases (PI3Ks)” (2013):

Biological target: Phosphatidylinositol 4,5-bisphosphate 3-kinase catalytic subunit gamma isoform (Homo sapiens, UniProt P48736)
Assay: Biological Assay: The assay combines the scintillation proximity assay technology (SPA, Amersham) with the capacity of neomycin (a polycationic antibiotic) to bind phospholipids with high affinity and specificity. The Scintillation Proximity Assay is based on the properties of weakly emitting isotopes (such as 3H, 125I, 33P). Coating SPA beads with neomycin allows the detection of phosphorylated lipid substrates after incubation with recombinant PI3K and radioactive ATP in the same well, by capturing the radioactive phospholipids to the SPA beads through their specific binding to neomycin.

Phosphatidylinositol 4,5-bisphosphate 3-kinase catalytic subunit gamma isoform, sequence (P48736 whole entry, canonical isoform): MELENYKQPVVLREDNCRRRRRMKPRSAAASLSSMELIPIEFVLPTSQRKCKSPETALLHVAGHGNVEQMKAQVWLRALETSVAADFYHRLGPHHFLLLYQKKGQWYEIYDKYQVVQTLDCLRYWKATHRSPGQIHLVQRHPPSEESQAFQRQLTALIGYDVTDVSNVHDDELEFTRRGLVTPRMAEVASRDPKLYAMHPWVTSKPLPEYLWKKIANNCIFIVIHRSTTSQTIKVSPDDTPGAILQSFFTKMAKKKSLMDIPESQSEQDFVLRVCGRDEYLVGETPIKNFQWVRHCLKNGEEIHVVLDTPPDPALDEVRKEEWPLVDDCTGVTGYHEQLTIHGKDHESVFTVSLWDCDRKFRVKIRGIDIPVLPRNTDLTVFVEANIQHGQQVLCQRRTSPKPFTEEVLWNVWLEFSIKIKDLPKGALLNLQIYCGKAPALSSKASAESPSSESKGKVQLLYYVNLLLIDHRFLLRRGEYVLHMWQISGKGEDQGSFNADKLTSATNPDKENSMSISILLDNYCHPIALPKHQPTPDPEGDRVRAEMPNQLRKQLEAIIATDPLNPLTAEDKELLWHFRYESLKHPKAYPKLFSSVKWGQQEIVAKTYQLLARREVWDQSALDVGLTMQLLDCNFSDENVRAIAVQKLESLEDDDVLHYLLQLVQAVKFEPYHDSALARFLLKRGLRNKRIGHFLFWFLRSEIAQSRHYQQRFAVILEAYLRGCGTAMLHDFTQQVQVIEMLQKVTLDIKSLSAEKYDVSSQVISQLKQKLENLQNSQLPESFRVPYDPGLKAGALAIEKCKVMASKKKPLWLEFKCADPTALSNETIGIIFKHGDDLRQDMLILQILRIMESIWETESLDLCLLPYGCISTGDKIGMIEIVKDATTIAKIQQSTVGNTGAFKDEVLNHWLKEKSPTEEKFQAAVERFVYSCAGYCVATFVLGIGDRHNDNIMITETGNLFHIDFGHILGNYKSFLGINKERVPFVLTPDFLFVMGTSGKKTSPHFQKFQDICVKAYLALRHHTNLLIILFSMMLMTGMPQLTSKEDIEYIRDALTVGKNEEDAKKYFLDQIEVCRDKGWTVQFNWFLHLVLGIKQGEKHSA

- IC50: 0.03 µM
Compound: COc1ccc(CC2CCOCC2)c(Nc2nc3ccccc3nc2NS(=O)(=O)c2ccc(CN(C)C)cc2)c1
